In data set [1] the test system is Aspergillus flavus (ATCC MYA-1004). The data set can be described thus: Measurement of minimum inhibitory concentration (MIC), ATCC MYA-1004. Format: cell-based. To be noted: Aspergillus flavus ATCC MYA-1004, 35° C., 48 hours. How it is done: (§1) New streaks are made with glycerol stock solution of the strains of Aspergillus fumigatus (ATCC MYA-4609/AF 293/CBS 101355) on Sabouraud's dextrose agar (SDA), incubate at 35° C. and a humidity of 40-70% for 72 hours. Other strains are processed as the same as AF293.
(§2) RPMI1640: one packet of RPMI1640 powder is dissolved in 1 L purified water and mixed well, add 0.165M MOPS, adjust the pH to 7.0, sterilize by filtration with 0.22 um membrane, and store at 4° C. for no more than 3 months.
(§3) Physiological saline: weigh 9 g of sodium chloride powder and dissolve in 1 L of purified water, and mixed well. Sterilize at 121° C. for 30 min, store at room temperature (RT) for no more than 1 week.
(§4) Dissolve the test compound and stock solution of one control compound with DMSO and obtain solutions at a concentration of 12.8 mg/mL
(§5) The maximum concentration of each compound is 0.8 mg/mL (e.g., 150 μL of dimethyl sulfoxide+10 uL of 12.8 mg/mL compound/control). Column 1 is filled with 40 μL of compound and columns 2 to 11 with 20 μL of dimethyl sulfoxide. Transfer 20 μL of compound from column 1 to column 2 to dilute the concentration. Repeat the above steps up to column 11 to give 2× serial dilutions.
(§6) 2 μL of the above 2× serial dilutions are injected into each hole of the corresponding test plate using a multichannel pipette.
(§7) Drop 5 ml of saline on the Aspergillus fumigatus SDA plate. The spores were carefully wiped off from the surface of the plate with an L-shaped coating rod. Then the suspension is transferred into a sterile tube. After shaking, let the tube stand for 5 to 10 minutes. Count the number of spores in the upper suspension with a hemocytometer and check the purity. Adjust the inoculum concentration to 0.2-2.5×10^4 spores/mL.
(§8) Inject 198 μL of diluted inoculum into each holes of the corresponding test plate using a multichannel pipette.
(§9) Incubate at 35° C. for 48 hours.
(§10) To facilitate scoring of the presence or absence of growth on the wall, a magnifying glass is used. The tested 96-well microplates were photographed and the optical density at 530 nm is read with an enzyme marker (Tecan Spark).

Data set [2] has as its system Aspergillus fumigatus (ATCC-204305). Description: Measurement of minimum inhibitory concentration (MIC), ATCC 204305. Particulars: ATCC204305; Aspergillus fumigatus ATCC 204305, 35° C., 48 hours. Format: cell-based. On the procedure: New streaks are made with glycerol stock solution of the strains of Aspergillus [NT] MYA-4609/AF 293/CBS 101355) on Sabouraud's dextrose agar (SDA), incubate at 35° C. and a humidity of 40-70% for 72 hours. Other strains are processed as the same as AF293. RPMI1640: one packet of RPMI1640 powder is dissolved in 1 L purified water and mixed well, add 0.165M MOPS, adjust the pH to 7.0, sterilize by filtration with 0.22 um membrane, and store at 4° C. for no more than 3 months. Physiological saline: weigh 9 g of sodium chloride powder and dissolve in 1 L of purified water, and mixed well. […] Dissolve the test compound and stock solution of one control compound with DMSO and obtain solutions at a concentration of 12.8 mg/mL The maximum concentration of each compound is 0.8 mg/mL (e.g., 150 μL of dimethyl sulfoxide+10 uL of 12.8 mg/mL compound/control). […] Repeat the above steps up to column 11 to give 2× serial dilutions. 2 μL of the above 2× serial dilutions are injected into each hole of the corresponding test plate using a multichannel pipette. Drop 5 ml of saline on the Aspergillus fumigatus SDA plate. The spores were carefully wiped off from the surface of the plate with an L-shaped coating rod. Then the suspension is transferred into a sterile tube. After shaking, let the tube stand for 5 to 10 minutes. Count the number of spores in the upper suspension with a hemocytometer and check the purity. Adjust the inoculum concentration to 0.2-2.5×10^4 spores/mL. Inject 198 μL of diluted inoculum into each holes of the corresponding test plate using a multichannel pipette. Incubate at 35° C. for 48 hours. […] To facilitate scoring of the presence or absence of growth on the wall, a magnifying glass is used. The tested 96-well microplates were photographed and the optical density at 530 nm is read with an enzyme marker (Tecan Spark).

Data set [3] relates to Aspergillus flavus (ATCC 204304). Description: Measurement of minimum inhibitory concentration (MIC), ATCC 204304. Format: cell-based. Particulars: ATCC204304; Aspergillus flavus ATCC 204304, 35° C., 48 hours. How it is done: as §1, §2, §3, §4, §5, §6, §7, §8, §9, §10
Data set [4] can be described thus: Liver microsomal stability test, human. Format: in vitro ADME. Particulars: Human liver microsomes; for CLint scaled / half-life: 0.5 mg/mL protein, 37° C., NADPH. How it is done:
(§11) • 1: Add 10 μL of working solutions of test product or reference product and 80 μL of microsomal working solution (liver microsomal protein concentration of 0.5 mg/mL) to wells of TO, T5, T10, T20, T30, T60, and NCF60, and only microsomal working solution is added to the Blank60 wells. Then the samples of Blank60, T10, T20, T30 and T60, except for TO and NCF60, are placed in a water bath set at 37° C. and incubate for approximately 10 mins; • 2: Add 300 μL of termination solution (acetonitrile solution containing 200 ng/mL tolbutamide and 200 ng/mL labetalol) to Sample TO, followed by 10 ul of NADPH regeneration system working solution; • 3: After incubation of Blank60, T5, T10, T20, T30 and T60 on incubation plates, add 10 μL of NADPH regeneration system working solution to each sample well to start the reaction, and 10 uL of 100 mM potassium phosphate buffer is add to the NCF60 sample wells; • 4: After incubation for appropriate times (e.g., 5, 10, 20, 30 and 60 mins), 300 μL of termination solution is add to each sample well of test product and reference product on Blank60, T5, T10, T20, T30, T60 and NCF60 plates, respectively, to terminate the reaction. • 5: All sample plates are shaken well and centrifuged at 4000 rpm for 20 min, take 100 μL of the supernatant of the test product or reference product, dilute in 300 μL of pure water for LC-MS/MS analysis, respectively. • 6: Data analysis, T½ and CLint(mic) (μL/min/mg) values are calculated based on the first-order elimination kinetics, and the equations of first-order elimination kinetics are: […]
Background: Liver microsomes are vesicles of endoplasmic reticulum, rich in cytochrome P450 enzymes.

Data set [5] is described as follows: Liver microsomal stability test, mouse. Format: in vitro ADME. Particulars: Mouse liver microsomes; for CLint scaled / half-life: 0.5 mg/mL protein, 37° C., NADPH. On the procedure: as §11
The test system of data set [6] is Aspergillus fumigatus (ATCC MYA-4609/AF293/CBS 101355). The data set can be described thus: Measurement of minimum inhibitory concentration (MIC), AF293. Type of data set: cell-based. To be noted: CBS101355; Aspergillus fumigatus AF293, 35° C., 48 hours, RPMI1640; read-out: AF293: MIC. On the procedure: as §1, §2, §3, §4, §5, §6, §7, §8, §9, §10
A short description of data set [7]: Pharmacokinetic test in SD rats, single oral administration. Type of data set: in vivo. Particulars: SD, rat, plasma, po, 10 mg/kg, single oral administration 10 mg/kg, test compound mixed with F901318, plasma. How it is done:
Pharmacokinetic study is performed on SD rats receiving single oral administration of each test compound mixed with F901318 (10 mg/kg, 3 rats per group). Test compounds and F901318 are dissolved with […]+10% solutol+85% saline, vortexed for 1-2 mins and ultra-sonicated for 5-10 mins to form a colorless clear drug solution. The animals are fasted overnight before oral administration, and resumed feeding 4 hours after administration. After oral administration, pharmacokinetic samples are collected from orbital blood of SD rats at 0.083 h, 0.25 h, 0.5 h, 1 h, 2 h, 4 h, 6 h, 8 h, and 24 h, and three whole blood samples are collected at each time point in a volume of 0.2-0.3 mL. Blood samples are placed on ice immediately after collected, and the plasma is separated by centrifugation within 15 min (centrifugation conditions: 8000 rpm, 1 min, and at room temperature).
The collected plasma is stored at −20° C. prior to analysis. Transfer 20 μL of plasma sample into an 0.5 mL EP tube, add 200 μL of working internal standard solution (blank group is without internal standard, using the same volume of solvent instead), vortex and mix for 3 min centrifuge at 13500 rpm for 10 min, take 100 μL of supernatant and analyze with LC-MS/MS.

Experimental findings from US20240327423A1, “A SERIES OF PYRROLE DERIVATIVES AND THEIR PREPARATION METHOD AND THERAPEUTIC USE” (SHENZHEN SUNGENING BIO-MEDICAL CO., LTD, priority 2020, published 2024) are described below.

SMILES strings stand for the structures. In brackets after ≈: the same amount, converted by molar mass.

By MIC is commonly meant the lowest concentration that inhibits growth of the organism. The CLint scaled is the capacity of the preparation to metabolise the compound, expressed as a volume cleared per time. As for `Cc1cc(-c2ccccc2)c(C(=O)C(=O)Nc2ccc3c(c2)C[C@@H]2CN(c4ncc(F)cn4)CCN32)n1C` [Example 34, (R)-2-(1,5-dimethyl-3-phenyl-1H-pyrrol-2-yl)-N-(2-(5-fluoropyrimidin-2-yl)-1,2,3,4,10,10a-hexahydropyrazino [1,2-a]indol-8-yl)-2-oxoacetamide], the MIC in data set [1] amounted to 0.008 µg/mL (≈ 0.0157 µM); in data set [2], 0.03 µg/mL (≈ 0.0588 µM); in data set [3], 0.016 µg/mL (≈ 0.0313 µM); in data set [6], 0.016 µg/mL (≈ 0.0313 µM). The CLint scaled in data set [4] was 31.3 mL/min/kg; in data set [5] it was 45.9 mL/min/kg. In addition, the half-life in data set [4] was 39.9 min; in data set [5], 54.4 min. The results for the “Remaining, (T = 60 min)” value in data set [4] and in data set [5] were 34.5% and 48.5%, respectively.
As to `Cc1cc(-c2ccccc2)c(C(=O)C(=O)Nc2ccc3c(c2)CCC2CN(c4ncc(F)cn4)CCN32)n1C` (centres unmarked) [Example 32, 2-(1,5-dimethyl-3-phenyl-1H-pyrrol-2-yl)-N-(3-(5-fluoropyrimidin-2-yl)-2,3,4,4a,5,6-hexahydro-1H-pyrazino [1,2-a]quinolin-8-yl)-2-oxoacetamide], the MIC stood at 0.016 µg/mL (≈ 0.0305 µM) in data set [1], 0.03 µg/mL (≈ 0.0572 µM) in data set [2], 0.016 µg/mL (≈ 0.0305 µM) in data set [3] and 0.008 µg/mL (≈ 0.0152 µM) in data set [6]. In addition, the CLint scaled is 56.4 mL/min/kg in data set [4] and 89.8 mL/min/kg in data set [5]. Also, the half-life in data set [4] was found to be 22.1 min; in data set [5], 27.8 min. In addition, the “Remaining, (T = 60 min)” value in data set [4] was 26.6%; in data set [5] it was 26.2%.
Consider `Cc1cc(-c2ccccc2)c(C(=O)C(=O)Nc2cc(F)c3c(c2)OCC2CN(c4ncc(F)cn4)CCN32)n1C` (centres unmarked) [Example 4], for which the minimal inhibitory concentration (MIC) was 0.008 µg/mL (≈ 0.0147 µM) in data set [1], 0.016 µg/mL (≈ 0.0294 µM) in data set [2], 0.016 µg/mL (≈ 0.0294 µM) in data set [3] and 0.03 µg/mL (≈ 0.0551 µM) in data set [6]. Besides, the CLint scaled in data set [4] was found to be 66.4 mL/min/kg; in data set [5], 114 mL/min/kg. Besides, the figures for the half-life in data set [4] and in data set [5] were 18.8 min and 21.8 min, respectively. In addition, the “Remaining, (T = 60 min)” value in data set [4] is on record as 10.5%; in data set [5], 14.3%.
The term AUC denotes the area under the concentration-time curve, a measure of exposure. As a reminder, the Cmax is the highest concentration seen after dosing. What is called Tmax is the time from dosing to the highest level. Consider `Cc1cc(-c2ccccc2)c(C(=O)C(=O)Nc2ccc3c(c2)OCC2CN(c4ncc(F)cn4)CCN32)n1C` (centres unmarked) [Example 3, 2-(1,5-dimethyl-3-phenyl-1H-pyrrol-2-yl)-N-(3-(5-fluoropyrimidin-2-yl)-1,2,3,4,4a,5-hexahydrobenzo[b]pyrazino[1,2-d][1,4]oxazin-8-yl)-2-oxoacetamide], for which the MIC in data set [1] turned out to be 0.008 µg/mL (≈ 0.0152 µM); in data set [2], 0.016 µg/mL (≈ 0.0304 µM); in data set [3] it was 0.008 µg/mL (≈ 0.0152 µM); in data set [6], 0.125 µg/mL (≈ 0.237 µM). The area under the curve (AUC) in data set [7] (read-out: AUC) was 18700 ng·h/mL. In addition, in data set [7] (read-out: Cmax), the Cmax came to 1420 ng/mL. Besides, in data set [7] (read-out: Tmax), the Tmax came to 55 min. Moreover, the half-life in data set [7] (read-out: T½ (converted)) was 321 min.
